Broadly, the Km is the substrate concentration at which the rate is half of its maximum.

Square brackets hold non-standard residues; d marks the D form. Ends that are not written are not given here.

Data on eleven compounds can be found in patent US4921797A, “C-terminal alpha-amidating enzyme and process for production and use thereof” (Hisayuki Matsuo, priority 1986, dated 1990).

Common to all, as to type: biochemical
The target of assay [1] is T1, C-terminal α-amidating enzyme AE-I (Xenopus laevis, UniProt P08478).
T1 construct: C-terminal α-amidating enzymes of the present invention can be extracted from the skin of Xenopus laevis; from tissue; host or cells: Xenopus laevis skin
T1 sequence (P08478 37-400 isoform P08478-2 limits assumed): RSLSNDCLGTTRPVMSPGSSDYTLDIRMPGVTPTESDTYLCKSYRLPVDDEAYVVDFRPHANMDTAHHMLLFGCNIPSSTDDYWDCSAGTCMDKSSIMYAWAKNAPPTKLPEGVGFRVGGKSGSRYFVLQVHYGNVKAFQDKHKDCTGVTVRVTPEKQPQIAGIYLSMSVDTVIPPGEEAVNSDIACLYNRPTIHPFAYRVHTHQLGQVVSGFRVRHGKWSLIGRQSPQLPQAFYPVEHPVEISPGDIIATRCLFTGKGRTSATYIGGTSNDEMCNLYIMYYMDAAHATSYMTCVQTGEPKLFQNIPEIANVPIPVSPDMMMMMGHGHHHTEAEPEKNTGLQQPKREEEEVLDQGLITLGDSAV
The assay is described as follows: Effect of substances on enzyme activity of AE-I. Here is the method:
C-terminal α-amidating enzyme of the present invention is assayed using synthetic peptide [^125 I]-Ac-Tyr-Phe-Gly as a substitute according to the following procedure. [^125 I]-Ac-Tyr-Phe-Gly (1 pmole, 70,000-150,000 cpm) was incubated with an enzyme preparation, in a final volume of 250 μl containing 0.2M Tris-HCl buffer (pH 7.0), 2 μM CuSo4, 0.25 mM ascorbic acid, 25 μg catalase (Boehringer), 0.1% Lubrol (PX type, Nakarai Chemicals). The reaction mixture was kept at 37° C. for 1 to 4 hours. Then 0.75 ml of 1M Tris-HCl buffer (pH 7.0) and 2 ml of the organic phase of an ethyl acetate/water mixture was added. Two phases were mixed vigorously on a Vortex mixer. After centrifugation at 3000 rpm for 3 min, the organic phase thus separated was transferred to another test tube. The radioactivity in organic and aqueous layers was each measured by a gamma scintillation counter. […] The yield of conversion was calculated from the ratio of the radioactivity in ethyl acetate phase to the total radioactivity. In this assay, one unit is defined as an amount of enzyme which converts 50% of added substrate [^125 I]-Ac-Try-Phe-Gly to [^125 I]-Ac-Tyr-Phe-NH2.

For assay [2], the target named is T1, C-terminal α-amidating enzyme AE-I. The assay can be described thus: Conversion of substrate peptides to C-terminal α-amidated products by AE-I (reverse-phase HPLC). As to conditions: same procedure as Example 3; rates Tyr-Phe-Gly>Ac-Tyr-Phe-Gly>D-Tyr-Val-Gly>D-Tyr-Gly-Gly. How it is done:
The 0.1 μg of the enzyme preparation AE-I prepared in Example 1 was incubated with 4 nmoles of Tyr-Gly-Gly-Phe-Met-Arg-Arg-Val-Gly as a substrate in 250 μl of a 0.2M Tris-HCl buffer (pH 7.0) containing 2 μM CuSO4, 0.25 mM ascorbic acid, 25 μg catalase, and 0.1% Lubrol, at 37° C. for 24 hours. After the reaction was terminated by the addition of 250 μl of 1% trifluoroacetic acid, the reaction mixture was applied to a TSK ODS-120A column (0.4×25 cm; Toyosoda), and elution was carried out using a linear gradient of 12 to 60% CH3 CN in 0.1% trifluoroacetic acid at a flow rate of 1.5 ml/min. The elute was analyzed for absorbance at 210 nm. FIG. 7A represents an elution pattern for a sample of the reaction mixture taken at 0 time, i.e., before the reaction, and FIG. 7B represents an elution pattern for a sample of the reaction mixture taken 24 hours after the reaction has started. […] In FIG. 7, arrows b and a represent positions at which the peaks of authentic substrate and authentic adrenorphin Tyr-Gly-Gly-Phe-Met-Arg-Arg-Val-NH2 respectively appear under the same condition. Adrenorphin corresponds to a peptide wherein C-terminal glycine has been converted to α-amide. Since the positions 1 and 2 match the positions a and b respectively, it is reasonable to assume that the reaction product corresponding to peak 1 is adrenorphin. This means that the enzyme of the present invention amidated the substrate at its C-terminal. To confirm this conclusion, the fraction 1 in FIG. 7 was hydrolyzed in 6M HCl at 110° C. for 24 hours, and the amino acid composition of the hydrolyzate was analyzed using an amino acid analyzer. Moreover, the presence of the C-terminal amide group in the fraction 1 was analyzed by thermolysin digestion followed by thin layer chromatography. All of the results confirmed that the reaction product is adrenorphin.
The same procedure as described in Example 3 was repeated except that, in place of Tyr-Gly-Gly-Phe-Met-Arg-Arg-Val-Gly(FIG. 8Δ), following substrates were used: […]

Assay [3] has the same target. The assay can be described thus: Kinetic constants of AE-I from Lineweaver-Burk plots. As to conditions: standard conditions. Here is the method:
C-terminal α-amidating enzyme of the present invention is assayed using synthetic peptide [^125 I]-Ac-Tyr-Phe-Gly as a substitute according to the following procedure. [^125 I]-Ac-Tyr-Phe-Gly (1 pmole, 70,000-150,000 cpm) was incubated with an enzyme preparation, in a final volume of 250 μl containing 0.2M Tris-HCl buffer (pH 7.0), 2 μM CuSo4, 0.25 mM ascorbic acid, 25 μg catalase (Boehringer), 0.1% Lubrol (PX type, Nakarai Chemicals). The reaction mixture was kept at 37° C. for 1 to 4 hours. Then 0.75 ml of 1M Tris-HCl buffer (pH 7.0) and 2 ml of the organic phase of an ethyl acetate/water mixture was added. Two phases were mixed vigorously on a Vortex mixer. After centrifugation at 3000 rpm for 3 min, the organic phase thus separated was transferred to another test tube. The radioactivity in organic and aqueous layers was each measured by a gamma scintillation counter. Under the conditions described above, over 98% of radioactivity of the authentic [^125 I]-Ac-Tyr-Phe-Gly was retained in an aqueous phase and over 98% of radioactivity of the authentic [^125 I]-Ac-Tyr-Phe-NH2 was transferred to an organic phase. The yield of conversion was calculated from the ratio of the radioactivity in ethyl acetate phase to the total radioactivity. In this assay, one unit is defined as an amount of enzyme which converts 50% of added substrate [^125 I]-Ac-Try-Phe-Gly to [^125 I]-Ac-Tyr-Phe-NH2.

`[Cu+2]` [Cu^++]: the “Requirement of Cu++ cation for enzyme activity” value in assay [1] is given as “essential”.

Regarding Ac-Tyr-Phe-Gly, in assay [2], the “Conversion of substrate by AE-I (FIG. 8)” value is given as “converted to the corresponding des-Gly peptide α-amides”. Also, in assay [3], the Km came to 0.35 µM and the Vmax stood at 1.9 nmol/µg/h. As to Tyr-Phe-Gly, in assay [2], the “Conversion of substrate by AE-I (FIG. 8)” value is reported as “converted to the corresponding des-Gly peptide α-amides”. Take [dY]-Val-Gly: the “Conversion of substrate by AE-I (FIG. 8)” value in assay [2] is reported as “converted to the corresponding des-Gly peptide α-amides”.

In the case of `O=C(O)CN(CCN(CC(=O)O)CC(=O)O)CC(=O)O` [EDTA], in assay [1] (0.1 mM EDTA), the “Effect on enzyme activity” value is given as “inhibited”. On to [dY]-Gly-Gly, for which the “Conversion of substrate by AE-I (FIG. 8)” value in assay [2] is listed as “converted to the corresponding des-Gly peptide α-amides”. The same measure, in the same setting: next, “Tyr-Gly-Gly-Phe-Met-Arg-Arg-Val [desamido-adrenorphin]”: “not affected by the enzyme”. In the case of `O=S(=O)([O-])[O-].[Cu+2]` [CuSO4], the “Effect on enzyme activity inhibited by the thiol compound” value in assay [1] (additional 1.2 mM CuSO4 in presence of 1 mM dithiothreitol) is recorded as “restores the enzyme activity”. For the same compound, in assay [1] (additional more than 0.12 mM CuSO4 in presence of 0.1 mM EDTA), the “Effect on enzyme activity inhibited by EDTA” value is listed as “restores the enzyme activity”. On to `CCN1C(=O)C=CC1=O` [N-ethylmaleimide], for which the “Effect on enzyme activity inhibited by the thiol compound” value in assay [1] (5 mM N-ethylmaleimide in presence of 1 mM dithiothreitol) is “restores the enzyme activity”.

Regarding `O[C@H](CS)[C@H](O)CS` (racemic) [dithiothreitol], in assay [1] (1 mM dithiothreitol), the “Effect on enzyme activity” value is reported as “inhibited”. YGGFMRRVGRPE [BAM-12P]: the “Conversion of substrate by AE-I (FIG. 8)” value in assay [2] is given as “not affected by the enzyme”.
